Test results from paper PMC4602232, “Structural basis for recognition of Emi2 by Polo-like kinase 1 and development of peptidomimetics blocking oocyte maturation and fertilization” (Scientific Reports, 2015).
Entries after “also recorded” stand apart in the source; their conditions may differ. Non-standard residues stand in square brackets, D forms with d. No end group written: not given here. pT = C[C@@H](OP(=O)(O)O)[C@H](N)C(=O)O

B1: Phosphorylated Emi2 146-177 peptide (phospho-Thr152 and phospho-Thr176) (peptide, UniProt Q8CDI2 146-177, looked up)
peptide: SPLVTS[pT]IKTEDVVSNSQNSRLHFSQHKTS[pT]I
notes: Made on Rink amide resin, so probably a C-terminal amide (surmised); source: synthetic peptide (Fmoc SPPS, Rink amide resin, RP-HPLC)
B2: Phosphorylated Emi2 169-177 peptide (phospho-Thr176) (peptide)
peptide: FSQHKTS[pT]I-NH2
notes: as for B1

What was measured:
[1] = system: Emi2^1–300-mCherry reporter in MII oocytes; assay: Emi2^1–300-mCherry degradation after parthenogenetic activation (time-lapse microscopy); type: cell-based, mouse; conditions: SrCl2 treatment in the presence of 100 nM BI2536; n = 3 oocytes
Text: pRN3-Emi2^1−300-mCherry plasmids containing the Plk1 recognition site and a degron for a SCF family ubiquitin ligase were constructed from synthetic Emi2^1–300 gene fragments and subcloned into the pRN3 vector as an mCherry fusion by means of Gibson Assembly[50]. The plasmids were linearized by digestion with SfiI; then cRNA was synthesized with T3 mMessage mMachine (Life Technologies). In vitro transcripts were purified by phenol-chloroform extraction and isopropyl alcohol precipitation and stored at −80 °C until use.
GV stage oocytes were injected with various peptidomimetics at 300 μM in a 50% aqueous solution (w/v) of dimethyl sulfoxide. Peptidomimetics were injected into oocyte by means of a Eppendorf Femto Jet (Eppendorf AG, Hamburg, Germany) and a Nikon Diaphot ECLIPSE TE300 inverted microscope (Nikon UK Ltd., Kingston upon Thames, Surrey, UK) equipped with a Narishige MM0-202N hydraulic three-dimensional micromanipulator (Narishige Inc., Sea Cliff, NY, USA) and subjected to in vitro maturation as described above. As a control, the BG34 reagent with threonine residues instead of phosphothreonine[35] was injected into oocytes at 300 μM. To test the oocytes for parthenogenetic activation, we collected mature MII oocytes and injected them with various reagents as described above for GV oocytes. […]

bromodomain BRD4 = conditions: cited from earlier work
Text: On the other hand, due to the high degree of similarity among kinase domains’ ATP-binding pockets, achieving good specificity is a difficult task. […] Because PBD exists only in the Plk family (Plk1 through Plk4), targeting of this site can result in high specificity along with enhanced binding affinity; these properties may faci ...

mouse oocyte maturation = conditions: cited from earlier work
Text: In Xenopus and in mice, the general scheme of calcium-mediated signal transduction has been well established, but the detailed molecular mechanism has been elusive. For instance, Plk1 is involved in Emi2 phosphorylation and destabilization, but the mechanism of binding of Plk1 to Emi2 has not yet been determined. Plk1 is known to be involved in various cell cycle-related processes, and recently it received attention as a target of anticancer treatments.

[2] = target: T1, Mouse Plk1 Polo box domain (Plk1-PBD, amino acid residues 367-603) (mouse, UniProt Q07832 367-603); assay: ITC; phosphorylated peptide (1.2 mM) injected into Plk1-PBD (0.1 mM) in the cell; 15 °C; 20 mM Tris-Cl pH 8.0, 300 mM NaCl, 3 mM DTT; one-site binding model; conditions: both partners purified
T1 construct: Polo-like kinase 1 (Plk1), mouse, polo box domain, residues 367-603; TEV site ENLYFQ/S between the His6 tag and the PBD; cleavage between Q and S should leave a Ser before residue 367 (surmised); also called polo box domain of Polo-like kinase 1; source: E. coli BL21 (DE3), purified (Ni-NTA, TEV digestion, Superdex 75 gel filtration); not shown: His6, N-terminal, cleaved
T1 sequence (Q07832 367-603): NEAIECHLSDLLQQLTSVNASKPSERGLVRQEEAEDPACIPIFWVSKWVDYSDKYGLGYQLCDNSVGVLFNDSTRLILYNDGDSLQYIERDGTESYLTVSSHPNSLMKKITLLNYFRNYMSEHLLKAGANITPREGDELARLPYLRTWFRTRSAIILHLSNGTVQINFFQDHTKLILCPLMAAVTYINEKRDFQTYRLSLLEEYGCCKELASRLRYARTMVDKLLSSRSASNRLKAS

| Molecule | decrease of Emi2-mCherry fluorescence after parthenogenetic activation (in words) [1] | binding and inhibition of BRD4 (in words) (bromodomain BRD4) | mouse oocyte maturation (in words) (mouse oocyte maturation) | stoichiometry N [2] | Kd [2] |
| --- | --- | --- | --- | --- | --- |
| CC[C@@H]1C(=O)N(C)c2cnc(Nc3ccc(C(=O)NC4CCN(C)CC4)cc3OC)nc2N1C1CCCC1 [BI2536] | did not cause any reduction in fluorescence even after 100 min; also recorded: blocks Emi2 degradation after parthenogenetic activation by SrCl2 | bind and inhibit bromodomain BRD4 at nanomolar concentration | impairs mouse oocyte maturation |  |  |
| B1 |  |  |  | 0.47 ratio of Emi2^146–177 to Plk1-PBD |  |
| B2 |  |  |  | 0.92 ratio of Emi2^169–177 to Plk1-PBD | 29.6 µM |
